Measured values as given in paper PMC7162861, “Synthesis, cytotoxicity, pharmacokinetic profile, binding with DNA and BSA of new imidazo[1,2-a]pyrazine-benzo[d]imidazol-5-yl hybrids” (Scientific Reports, 2020).

Key:
[1] = Experimental log P, shake-flask method; format: physicochemical; details: n-octanol/phosphate buffer pH 7.4, read-out: Exp. Log P
Protocol: Partition coefficients or experimental log P values of all synthesized compounds (9–23, 30 and 31) were calculated using the shake-flask method. Log P values were determined using n-octanol and phosphate buffer (pH = 7.4) at 10:1 ratio of volumes. Stock solutions (10^−3 M) of compounds were prepared in DMSO. Glass vials were used to make final solutions i.e. stock solution (250 µL) and phosphate buffer (125 µL). To record the absorbance, wavelength was selected based on λmax of the respective compound. Initial absorbance (Ai) for every compound was noted consuming the stock solution in the buffer phase. Now added n-octanol to every vial and shaken well using a mechanical shaker for 50 minutes. To get separation of both phases, glass vials were centrifuged for 35 min. at 2500 rpm. Then, the layer of octanol was separated from glass vial. The final absorbance (Af) of each compound was recorded by using the buffer layer. The values of P for compounds were determined by the following equation (Eq. 8):8 P=Ai−Af/Af×Vw/Vo

FC(F)(F)c1cccc(-c2cn3ccnc3c(-c3ccc4c(c3)ncn4C3CCCCC3)n2)c1 [Compound 23, 8-(1-cyclohexyl-1H-benzo[d]imidazol-5-yl)-6-(3-(trifluoromethyl)phenyl)imidazo[1,2-a]pyrazine]
logP [1]: 1.67
melting point: 196 to 199 °C
